Test results: US20150307614A1, “Enhanced immunological responses” (Duke University, priority 2009, published 2015)

What was measured:
OVA-specific T-cells = assay: Antigen-specific vaccination after TMZ-induced lymphopenia in mice, with or without anti-IL-2Rα; type: in vivo; settings: TMZ pre-treatment
Procedure: (§1) It also induces transient, Grade 3 lymphopenia (<500 cells/uL) in 70% of patients with GBM after the first cycle (150-200 mg/m2/5 d) with nadirs occurring 14-21 days after treatment (n=10). TMZ treatment also leads to an increase in the proportion of TRegs in the peripheral blood (unpublished). Despite this, we have been able to induce and maintain potent EGFRvIII-specific humoral and cellular immune responses in patients with GBM receiving TMZ. Thus, we evaluated TMZ for its capacity to induce homeostatic proliferation and to enhance antigen-specific immune responses in a murine model. Markedly elevated levels of antigen-specific T-cells could be achieved and maintained in mice receiving antigen-specific vaccination after TMZ-induced lymphopenia when compared to normal hosts.

[1] = TMZ-induced lymphopenia in patients with GBM; type: in vivo, human; settings: after the first cycle (150-200 mg/m2/5 d), n=10
Procedure: as §1

[2] = test system: newly-diagnosed, EGFRvIII+ GBM
Procedure: In patients with newly-diagnosed, EGFRvIII+ GBM, after resection and radiation/TMZ, patients received CDX-110 vaccinations biweekly×3, then monthly until tumor progression in combination with TMZ (200 mg/m^2×5/28 days). […] The others received saline in a double-blinded fashion.

human TRegs = assay: Daclizumab on human TRegs in vitro; type: cell-based
[3] = after expansion post vaccination

Compound | OVA-specific T-cells, frequency of circulating CD8+ T-cells (OVA-specific T-cells; 4 weeks post-vaccination) [%] | OVA-specific T-cells, absolute count after vaccination (OVA-specific T-cells; [3]) [cells/uL] | OVA-specific T-cells, frequency of circulating CD8+ T-cells after vaccination (OVA-specific T-cells; [3]) [%] | OVA-specific T-cells, absolute count, start of expansion (OVA-specific T-cells; starting count) [cells/uL blood] | OVA-specific T-cells, frequency of circulating CD8+ T-cells, start of expansion (OVA-specific T-cells; starting frequency) [%] | patients with transient Grade 3 lymphopenia (<500 cells/uL) [1] [%] | time of lymphopenia nadirs after treatment [1] [days] | OS (overall survival) ([2]; both arms) | TTP (time to progression) ([2]; both arms) | overall CD8+ or CD4+ T-cell counts ([2]; daclizumab 1 mg/Kg×1, preliminary analysis n=4) | EGFRvIII-specific immune responses ([2]; daclizumab arm, preliminary analysis n=4, p=0.01 t-test) | titer of cytotoxic EGFRvIII-specific IgG1 isotype antibodies ([2]; human, in vivo) | Treg (CD4+CD25+CD45RO+FOXP3+) numbers, change from baseline ([2]; reduction, daclizumab 1 mg/Kg×1 at first vaccine, preliminary analysis n=4, p=0.011 t-test) [%] | effector T-cell function (human TRegs; in vitro) | human TRegs (human TRegs; in vitro) | CD4+ T-cell responses (human TRegs; preliminary in vitro studies with human TRegs in the presence of daclizumab)
Cn1nnc2c(C(N)=O)ncn2c1=O [TMZ, temozolomide] | 21.18 | 42.61 | 10.64 | 3.41 | 0.40 | 70 | 14 to 21 |  |  |  |  |  |  |  |  | 
daclizumab: commercially available humanized IL-2Rα-specific antibody |  |  |  |  |  |  |  | has not been reached | has not been reached | without reducing | enhanced | enhanced | 82.4±7.1 | increase | reduction | enhancement
